Assay [1] relates to human osteosarcoma cell line SJSA-1. Put plainly: Inhibition of proliferation of human osteosarcoma cell line SJSA-1 (DAPI staining, In Cell Analyzer). Particulars: Homo sapiens, SJSA-1, 72 h, read-out: IC50 (nM), inhibitory activity on proliferation of human osteosarcoma cell line SJSA-1, SJSA-1, incubated 72 h.
The target in the next assay is T1, MDM2 (Homo sapiens, UniProt Q00987).
T1 construct: made in house
Put plainly: Inhibition test of MDM2-P53 (GST-MDM2, Biotin-P53, Anti-GST-Tb, SA-XL665). In kind it is binding. The method, boiled down:
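Compounds, serially diluted 5-fold (twelve concentrations), were shaken for 90 min at 25° C with a mix of GST-MDM2 (4 nM final), Biotin-P53, anti-GST-Tb and SA-XL665. Buffer: 1×PBS, 0.1% BSA, 5 mM DTT, 1 mM AEBSF; signal read on a microplate reader.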

T1 sequence (Q00987 whole entry): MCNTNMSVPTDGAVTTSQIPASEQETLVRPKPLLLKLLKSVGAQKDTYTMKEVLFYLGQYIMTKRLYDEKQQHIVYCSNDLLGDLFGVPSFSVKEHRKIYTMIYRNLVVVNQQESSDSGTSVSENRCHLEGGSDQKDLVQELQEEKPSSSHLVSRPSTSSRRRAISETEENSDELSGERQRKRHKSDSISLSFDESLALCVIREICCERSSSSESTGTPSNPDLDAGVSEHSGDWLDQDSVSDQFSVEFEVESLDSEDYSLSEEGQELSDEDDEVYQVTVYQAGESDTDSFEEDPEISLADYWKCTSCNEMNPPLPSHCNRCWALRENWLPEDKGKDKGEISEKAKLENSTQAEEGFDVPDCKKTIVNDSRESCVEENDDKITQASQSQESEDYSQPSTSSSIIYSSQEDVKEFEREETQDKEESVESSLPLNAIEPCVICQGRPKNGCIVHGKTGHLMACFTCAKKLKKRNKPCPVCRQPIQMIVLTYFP

For `CCOc1ccccc1-c1nc2c(n1C(C)C)[C@@]1(C(=O)Nc3cc(Cl)ccc31)N(c1cc(Cl)ccc1C)C2=O` [Example S-35, (S)-6-chloro-5′-(5-chloro-2-methylphenyl)-2′-(2-ethoxyphenyl)-3′-isopropyl-3′H-spiro[dihydroindole-3,4′-pyrrolo[3,4-d]imidazole]-2,6′(5′H)-dione], the IC50 in assay [1] stood at 258 nM; on MDM2, 23.4 nM.

Turning to `CCc1ccc(OC)c(-c2nc3c(n2C(C)C)[C@@]2(C(=O)Nc4cc(Cl)ccc42)N(c2cc(Cl)ccc2C)C3=O)c1` [Example S-37, (S)-6-chloro-5′-(5-chloro-2-methylphenyl)-2′-(5-ethyl-2-methoxyphenyl)-3′-isopropyl-3′H-spiro[dihydroindole-3,4′-pyrrolo[3,4-d]imidazole]-2,6′(5′H)-dione], the IC50 is 14.2 nM in assay [1] and 22 nM at MDM2.

As to `CCc1ccc(OC)c(-c2nc3c(n2C(C)C)[C@@]2(C(=O)Nc4cc(Cl)ccc42)N(c2cccc(Cl)c2)C3=O)c1` [Example S-38, (S)-6-chloro-5′-(3-chlorophenyl)-2′-(5-ethyl-2-methoxyphenyl)-3′-isopropyl-3′H-spiro[dihydroindole-3,4′-pyrrolo[3,4-d]imidazole]-2,6′(5′H)-dione], the IC50 in assay [1] amounted to 14.7 nM; at MDM2 it was 12 nM.

`COc1ccc(-c2nc3c(n2C(C)C)[C@@]2(C(=O)Nc4cc(Cl)ccc42)N(c2cc(Cl)cn(C)c2=O)C3=O)c(OC)c1` [Example S-39, (S)-6-chloro-5′-(5-chloro-1-methyl-2-oxo-1,2-dihydropyridin-3-yl)-2′-(2,4-dimethoxyphenyl)-3′-isopropyl-3′H-spiro[dihydroindole-3,4′-pyrrolo[3,4-d]imidazole]-2,6′(5′H)-dione]: the results for the IC50 (in assay [1]; against MDM2) were 1180 nM and 3.93 nM, respectively.

As for `COc1cc(-c2nc3c(n2C(C)C)[C@@]2(C(=O)Nc4cc(Cl)ccc42)N(c2cc(Cl)ccc2C)C3=O)c(OC)cn1` [Example S-40, (S)-6-chloro-5′-(5-chloro-2-methylphenyl)-2′-(2,5-dimethoxypyridin-4-yl)-3′-isopropyl-3′H-spiro[dihydroindole-3,4′-pyrrolo[3,4-d]imidazole]-2,6′(5′H)-dione], the IC50 stood at 14.1 nM in assay [1] and 3.85 nM against MDM2.

As for `COc1ncc(-c2nc3c(n2C2CCC2)[C@@]2(C(=O)Nc4cc(Cl)ccc42)N(c2cc(Cl)ccc2C)C3=O)c(OC)n1` [Example S-41, (S)-6-chloro-5′-(5-chloro-2-methylphenyl)-3′-cyclobutyl-2′-(2,4-dimethoxypyrimidin-5-yl)-3′H-spiro[dihydroindole-3,4′-pyrrolo[3,4-d]imidazole]-2,6′(5′H)-dione], the results for the IC50 (in assay [1]; on MDM2) were 1210 nM and 149 nM, respectively.

As for `COc1ncc(-c2nc3c(n2C(C)C)[C@@]2(C(=O)Nc4cc(Cl)ccc42)N(c2cc(Cl)cnc2C)C3=O)c(OC)n1` [Example S-42, (S)-6-chloro-5′-(5-chloro-2-methylpyridin-3-yl)-2′-(2,4-dimethoxypyrimidin-5-yl)-3′-isopropyl-3′H-spiro[dihydroindole-3,4′-pyrrolo[3,4-d]imidazole]-2,6′(5′H)-dione], the IC50 in assay [1] was 5.6 nM; against MDM2, 1.51 nM.

On to `COc1ccccc1-c1nc2c(n1C(C)C)[C@@]1(C(=O)Nc3cc(Cl)ccc31)N(c1cc(Cl)cn(C)c1=O)C2=O` [Example S-43, (S)-6-chloro-5′-(5-chloro-1-methyl-2-oxo-1,2-dihydropyridin-3-yl)-3′-isopropyl-2′-(2-methoxyphenyl)-3′H-spiro[dihydroindole-3,4′-pyrrolo[3,4-d]imidazole]-2,6′(5′H)-dione], for which the IC50 is 564 nM in assay [1] and 3.28 nM on MDM2.

Take `COc1cc(CN(C)C)ccc1-c1nc2c(n1C(C)C)[C@@]1(C(=O)Nc3cc(Cl)ccc31)N(c1cc(Cl)ccc1C)C2=O` [Example S-47, (S)-6-chloro-5′-(5-chloro-2-methylphenyl)-2′-(4-((dimethylamino)methyl)-2-methoxyphenyl)-3′-isopropyl-3′H-spiro[dihydroindole-3,4′-pyrrolo[3,4-d]imidazole]-2,6′(5′H)-dione]: the IC50 amounted to 14 nM in assay [1] and 4.16 nM at MDM2.

In the case of `COc1cc(N)ccc1-c1nc2c(n1C(C)C)[C@@]1(C(=O)Nc3cc(Cl)ccc31)N(c1cc(Cl)ccc1C)C2=O` [Example S-49, (S)-2′-(4-amino-2-methoxyphenyl)-6-chloro-5′-(5-chloro-2-methylphenyl)-3′-isopropyl-3′H-spiro[dihydroindole-3,4′-pyrrolo[3,4-d]imidazole]-2,6′(5′H)-dione], the IC50 stood at 5.92 nM in assay [1] and 1.72 nM on MDM2.

As for `COc1ncc(-c2cc3c(n2C(C)C)[C@@]2(C(=O)Nc4cc(Cl)ccc42)N(c2cc(Cl)ccc2C)C3=O)c(OC)n1` [Example S-50, (S)-6-chloro-5′-(5-chloro-2-methylphenyl)-2′-(2,4-dimethoxypyrimidin-5-yl)-1′-isopropyl-1′H-spiro[dihydroindole-3,6′-pyrrolo[3,4-b]pyrrole]-2,4′(5′H)-dione], the IC50 is 1320 nM in assay [1] and 85.5 nM on MDM2.

`COc1ncc(-c2nc3c(n2C(C)C)[C@@]2(C(=O)Nc4cc(Cl)ccc42)N(c2cc(C)cc(Cl)c2)C3=O)c(OC)n1` [Example S-51, (S)-6-chloro-5′-(3-chloro-5-methylphenyl)-2′-(2,4-dimethoxypyrimidin-5-yl)-3′-isopropyl-3′H-spiro[dihydroindole-3,4′-pyrrolo[3,4-d]imidazole]-2,6′(5′H)-dione]: the results for the IC50 (in assay [1]; against MDM2) were 62.6 nM and 4.36 nM, respectively.

Consider `COc1ccc(-c2nc3c(n2C(C)C)[C@@]2(C(=O)Nc4cc(Cl)ccc42)N(c2cc(Cl)c(=O)n(C)c2)C3=O)c(OC)c1` [Example S-52, (S)-6-chloro-5′-(5-chloro-1-methyl-6-oxo-1,6-dihydropyridin-3-yl)-2′-(2,4-dimethoxyphenyl)-3′-isopropyl-3′H-spiro[dihydroindole-3,4′-pyrrolo[3,4-d]imidazole]-2,6′(5′H)-dione], for which the values for the IC50 (in assay [1]; against MDM2) were 467 nM and 0.87 nM, respectively.

Take `COc1ccccc1-c1nc2c(n1C(C)C)[C@@]1(C(=O)Nc3cc(Cl)ccc31)N(c1cc(Cl)c(=O)n(C)c1)C2=O` [Example S-53, (S)-6-chloro-5′-(5-chloro-1-methyl-6-oxo-1,6-dihydropyridin-3-yl)-3′-isopropyl-2′-(2-methoxyphenyl)-3′H-spiro[dihydroindole-3,4′-pyrrolo[3,4-d]imidazole]-2,6′(5′H)-dione]: the values for the IC50 (in assay [1]; against MDM2) were 213 nM and 0.84 nM, respectively.

Turning to `CNC(=O)c1ccc(-c2nc3c(n2C(C)C)[C@@]2(C(=O)Nc4cc(Cl)ccc42)N(c2cc(Cl)ccc2C)C3=O)c(OC)c1` [Example S-54, (S)-4-(6-chloro-5′-(5-chloro-2-methylphenyl)-3′-isopropyl-2,6′-dioxo-5′,6′-dihydro-3′H-spiro[dihydroindole-3,4′-pyrrolo[3,4-d]imidazole]-2′-yl)-3-methoxy-N-methylbenzamide], the IC50 in assay [1] turned out to be 468 nM; against MDM2, 2.25 nM.

Take `COc1ncc(-c2nc3c(n2C(C)C)[C@@]2(C(=O)Nc4cc(Cl)ccc42)N(c2cccc(C)c2)C3=O)c(OC)n1` [Example S-55, (S)-6-chloro-2′-(2,4-dimethoxypyrimidin-5-yl)-3′-isopropyl-5′-(m-tolyl)-3′H-spiro[dihydroindole-3,4′-pyrrolo[3,4-d]imidazole]-2,6′(5′H)-dione]: the IC50 in assay [1] was found to be 117 nM; against MDM2, 4.25 nM.

For `COc1cccc(F)c1-c1nc2c(n1C(C)C)[C@@]1(C(=O)Nc3cc(Cl)ccc31)N(c1cc(Cl)ccc1C)C2=O` [Example S-57, (S)-6-chloro-5′-(5-chloro-2-methylphenyl)-2′-(2-fluoro-6-methoxyphenyl)-3′-isopropyl-3′H-spiro[dihydroindole-3,4′-pyrrolo[3,4-d]imidazole]-2,6′(5′H)-dione], the figures for the IC50 (in assay [1]; against MDM2) were 11.8 nM and 3.04 nM, respectively.

On to `COc1cc(Cl)cc(N2C(=O)c3nc(-c4cnc(OC)nc4OC)n(C(C)C)c3[C@@]23C(=O)Nc2cc(Cl)ccc23)c1` [Example S-58, (S)-6-chloro-5′-(3-chloro-5-methoxyphenyl)-2′-(2,4-dimethoxypyrimidin-5-yl)-3′-isopropyl-3′H-spiro[dihydroindole-3,4′-pyrrolo[3,4-d]imidazole]-2,6′(5′H)-dione], for which the IC50 turned out to be 50.8 nM in assay [1] and 11.4 nM at MDM2.

Take `COc1ccc(C)cc1-c1nc2c(n1C(C)C)[C@@]1(C(=O)Nc3cc(Cl)ccc31)N(c1cc(Cl)ccc1C)C2=O` [Example S-62, (S)-6-chloro-5′-(5-chloro-2-methylphenyl)-3′-isopropyl-2′-(2-methoxy-5-methylphenyl)-3′H-spiro[dihydroindole-3,4′-pyrrolo[3,4-d]imidazole]-2,6′(5′H)-dione]: the values for the IC50 (in assay [1]; on MDM2) were 10.5 nM and 1.61 nM, respectively.

Take `COc1ccc(N2C(=O)c3nc(-c4ccccc4OC)n(C(C)C)c3[C@@]23C(=O)Nc2cc(Cl)ccc23)cc1Cl` [Example S-63, (S)-6-chloro-5′-(3-chloro-4-methoxyphenyl)-3′-isopropyl-2′-(2-methoxyphenyl)-3′H-spiro[dihydroindole-3,4′-pyrrolo[3,4-d]imidazole]-2,6′(5′H)-dione]: the IC50 stood at 77.6 nM in assay [1] and 1.16 nM at MDM2.

Regarding `COc1ccc(-c2nc3c(n2C(C)C)[C@@]2(C(=O)Nc4cc(Cl)ccc42)N(c2cc(Cl)ccc2C)C3=O)cc1` [Example S-64, (S)-6-chloro-5′-(5-chloro-2-methylphenyl)-3′-isopropyl-2′-(4-methoxyphenyl)-3′H-spiro[dihydroindole-3,4′-pyrrolo[3,4-d]imidazole]-2,6′(5′H)-dione], the IC50 worked out at 726 nM in assay [1] and 11.8 nM against MDM2.

Source of the values: patent publication US11339171B2, “MDM2 inhibitors” (Gan & Lee Pharmaceuticals, priority 2017, dated 2022).
